How the values were obtained:
Type in all cases: cell-based, human
293 cells [1] = test: Effect of replacement compounds on the growth of 293 cells in 293 SFM without transferrin, three passages; conditions: third passage, control 5 μg/mL human holo-transferrin
293 cells [2] = test: X-gal in situ staining, % transfection efficiency, 293 cells in 24-well plates; conditions: Example 7
Procedure: The third well of each treatment was used for in situ staining for β-galactosidase activity (i.e., ˜1×10^6 cells).
The transfection efficiency of cells grown in the presence of ZnSO4+ chelating agent as a replacement for insulin was tested at various concentrations of chelator and ZnSO4 and the results are shown in Table 10. Cells were prepared in monolayer culture in base medium containing the indicated supplements and transfected and assayed as described above.
293 cells were grown in monolayer culture in base media supplemented with the indicated chelator and metal salt at the indicated concentrations. The concentration of the chelator is given in μmoles/l and the concentration of the metal salt is given in μgrams/ml. […] The concentration of the cells in the media was 1×10^6 cell/ml, the concentration of DNA used was 1 μg DNA/10^6 cells, the concentration of LIPOFECTAMINE 2000 used was 8 μl/10^6 cells.
For cells transfected in 24-well plates, cells densities used were 1×10^6 viable cells per well.

293 cells [3] = test: Growth and adaptation of 293 cells to test media before transfection; conditions: for support of growth at the ZnSO4 concentrations tested: Example 7, ethyl maltol 50 μM, 2-hydroxypyridine 25 μM, DPTA.FeSO4 50 μM, ZnSO4 0.5×-5×
Procedure: When cultured in suspension, cells were split to 3×10^5 viable cells per ml at each passage. On the week of transfection cells were seeded at 3×10^5 viable cells per ml. After ˜48 hrs of growth (day 2) cells were vortexed for 30 seconds and counted and appropriate volumes used for transfection as described in procedures below.
293 cells were grown in monolayer culture in base medium supplemented with the indicated replacement compounds at the concentrations specified in Table 9.

[4] = 25 μM, iron equimolar where combined

| Compound | mean percentage of control growth (293 cells [1]; [4]) | mean percentage of control growth (293 cells [1]; 50 μM) | mean percentage of control growth (293 cells [1]; 100 μM) | X-gal staining transfection efficiency (293 cells [2]; media with 1× ZnSO4) | X-gal staining transfection efficiency (293 cells [2]; media with insulin) | support of growth (293 cells [3]; Example 6, 100 μM) | support of growth at the ZnSO4 concentrations tested (293 cells [3]) | growth in the presence of ZnSO4 (293 cells [3]; Example 6, in combination with ZnSO4 instead of insulin) |
| --- | --- | --- | --- | --- | --- | --- | --- | --- |
| CCc1occc(=O)c1O [2-Ethyl-3-Hydroxy-4-Pyrone] | 59 percentage of control growth | 120 percentage of control growth | 126 percentage of control growth | ~40% | 50-60% | did not support growth | supported growth at all concentrations of ZnSO4 tested | – |
| Diethylenetriamine Penta-Acetic Acid•Ferrous Sulfate | 77 percentage of control growth | 107 percentage of control growth | 85 percentage of control growth | – | – | – | supported growth at concentrations of 1×, 2× and 5× ZnSO4, but not at 0.5× | acceptable |

From US9879243B2, “Culture medium for cell growth and transfection” (LIFE TECHNOLOGIES CORPORATION, priority 2001, dated 2018)
